# Laboratory results: patent publication US9326539B2, “Compositions comprising dietary fat complexers and methods for their use” (Soho Flordis International Pty. Ltd., priority 2002, dated 2016)
# Experiments:
# [1] = Wistar rat low fat/high fat diet feeding study: food and energy intake, body weight, body composition; type: in vivo, Wistar rats; settings: 6 week study, α-cyclodextrin:fat 1:10 w/w in diet
# Source text: To examine the effect of α-cyclodextrin on body weight gain and plasma lipid levels in animals fed high fat and low fat diets, we conducted a short-term feeding study using Wistar rats. Forty-two male Wistar rats, 10 weeks old, were obtained from Harlan-Sprague Dawley. Following a one-week adaptation while being fed the control low fat diet (LF), they were divided equally into two groups, one low-fat (LF) diet and the other high-fat (HF) diet. These two groups were further divided into two subgroups. Two groups were fed the LF or HF diet and served as controls for the other two test groups which were fed the LF or HF diet containing α-cyclodextrin, wherein the amount of α-cyclodextrin was such that the ratio of α-cyclodextrin to fat in the food was 1:10 w/w. […]
# If this were the case it would be difficult to imagine being able to feed enough of the α-cyclodextrin to an animal in order to complex sufficient triglycerides to make a significant difference in body weight as triglycerides and α-cyclodextrin have similar molecular weights. However, from the data disclosed herein wherein e.g., a diet comprising 4% α-cyclodextrin and 40% fat inhibits weight gain and reduces body fat mass, as the molecular weights are very similar, we have calculated that one α-cyclodextrin molecule can complex approximately nine molecules of triglyceride, the equivalent of 27 free fatty acids. […]
# [2] = biological target: T1, porcine pancreatic lipase (Sus scrofa, UniProt P00591); assay: lipolytic activity of porcine pancreatic lipase on purified olive oil premixed with α-cyclodextrin; type: biochemical
# T1 sequence (P00591 1-450): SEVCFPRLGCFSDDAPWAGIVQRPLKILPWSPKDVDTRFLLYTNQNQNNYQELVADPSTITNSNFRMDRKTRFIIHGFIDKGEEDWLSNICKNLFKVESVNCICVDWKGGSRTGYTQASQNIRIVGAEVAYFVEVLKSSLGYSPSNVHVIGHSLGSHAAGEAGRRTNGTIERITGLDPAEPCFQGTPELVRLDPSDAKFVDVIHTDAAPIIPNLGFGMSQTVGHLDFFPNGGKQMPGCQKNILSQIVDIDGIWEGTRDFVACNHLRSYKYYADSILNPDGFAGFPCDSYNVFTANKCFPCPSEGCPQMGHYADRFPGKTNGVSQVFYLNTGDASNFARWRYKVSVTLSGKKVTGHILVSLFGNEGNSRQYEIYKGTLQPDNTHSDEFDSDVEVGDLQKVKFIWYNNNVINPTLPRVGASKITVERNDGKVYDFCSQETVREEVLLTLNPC
# Source text: If this were the case it would be difficult to imagine being able to feed enough of the α-cyclodextrin to an animal in order to complex sufficient triglycerides to make a significant difference in body weight as triglycerides and α-cyclodextrin have similar molecular weights. However, from the data disclosed herein wherein e.g., a diet comprising 4% α-cyclodextrin and 40% fat inhibits weight gain and reduces body fat mass, as the molecular weights are very similar, we have calculated that one α-cyclodextrin molecule can complex approximately nine molecules of triglyceride, the equivalent of 27 free fatty acids. Thus we can convert this directly to I gram of α-cyclodextrin complexes approximately 9 grams of triglyceride. […] As these particles are formed in the midst of chyme, a very complex “soup”, the particles may be analogous to lipoprotein particles of the blood stream.
# [3] = dog with chronic diarrhea fed α-cyclodextrin with dry food; type: in vivo; settings: 2.5 g α-cyclodextrin with two cups dry food twice a day for two and one-half weeks, α-cyclodextrin:fat about 1:9
# Method: An eighteen month old, neutered male dog of unknown parentage having chronic diarrhea was de-wormed twice and placed on hypoallergenic food in an effort to control the diarrhea. However, the chronic diarrhea was not alleviated and the dog stopped eating for a day or two on two or three separate occasions.
# The dog was then treated with α-cyclodextrin as follows: The dog was placed on a diet comprising a teaspoon (2.5 g) of α-cyclodextrin mixed with two cups dry food twice a day for two and one-half weeks. Based on the fat content in the food, the ratio of α-cyclodextrin to fat was about 1:9. The dog's chronic diarrhea was eliminated during this period except for an acute episode of loose stools after a day of swimming in a river but the stool has been formed ever since.
# The dog very quickly lost his appetite, self restricted his food intake by about one-half and began eating grass, grass helps to bind his stool. The diarrhea returned.
# [4] = tested on: insulin and leptin; assay: two additional volunteers: body weight, insulin and leptin levels (radioimmune assays); type: in vivo, human
# Source text: Blood samples were taken from the two additional subjects in Example 3 at various timepoints and assayed for insulin levels and leptin levels by the method of Linco Research (St. Charles, Mo.) using human insulin and leptin radioimmune assays.
smiles,measurement,setting,value
OC[C@H]1O[C@@H]2O[C@H]3[C@H](O)[C@@H](O)[C@@H](O[C@H]4[C@H](O)[C@@H](O)[C@@H](O[C@H]5[C@H](O)[C@@H](O)[C@@H](O[C@H]6[C@H](O)[C@@H](O)[C@@H](O[C@H]7[C@H](O)[C@@H](O)[C@@H](O[C@H]1[C@H](O)[C@H]2O)O[C@@H]7CO)O[C@@H]6CO)O[C@@H]5CO)O[C@@H]4CO)O[C@@H]3CO [α-cyclodextrin],rate of body weight gain,[1],gained weight at a slower rate relative to their respective control groups
same,lipolytic activity of porcine pancreatic lipase,[2],significantly reduced
same,chronic diarrhea,[3],eliminated
same,Leptin,"[4]; Subject 1, 55 days on diet, day 0: 3.6",2.9 ng/mL
same,Insulin,"[4]; Subject 1, 55 days on diet, day 0: 14",13 uU/ml
same,Body weight,"[4]; Subject 1, 55 days on diet, day 0: 89.09",85.45 kg
same,Body weight,"[4]; Subject 1, 55 days on diet, day 0: 196",188 lb
same,Leptin,"[4]; Subject 1, 112 days on diet, day 0: 3.6",1.6 ng/mL
same,Insulin,"[4]; Subject 1, 112 days on diet, day 0: 14",8 uU/ml
same,Body weight,"[4]; Subject 1, 112 days on diet, day 0: 89.09",81.82 kg
same,Body weight,"[4]; Subject 1, 112 days on diet, day 0: 196",180 lb
same,Body weight % decrease,"[4]; Subject 1, day 0 to day 112",5.0%
same,Insulin % decrease,"[4]; Subject 1, day 0 to day 112",42.9%
same,Leptin % decrease,"[4]; Subject 1, day 0 to day 112",55.6%
same,Leptin,"[4]; Subject 2, 28 days on diet, day 0: 6.1",6.0 ng/mL
same,Insulin,"[4]; Subject 2, 28 days on diet, day 0: 26",28 uU/ml
same,Body weight,"[4]; Subject 2, 28 days on diet, day 0: 105.45",104.55 kg
same,Body weight,"[4]; Subject 2, 28 days on diet, day 0: 232",230 lb
same,Leptin,"[4]; Subject 2, 62 days on diet, day 0: 6.1",3.9 ng/mL
same,Insulin,"[4]; Subject 2, 62 days on diet, day 0: 26",16 uU/ml
same,Body weight,"[4]; Subject 2, 62 days on diet, day 0: 105.45",100.23 kg
same,Body weight,"[4]; Subject 2, 62 days on diet, day 0: 232",220.5 lb
same,Body weight % decrease,"[4]; Subject 2, day 0 to day 62",5.0%
same,Insulin % decrease,"[4]; Subject 2, day 0 to day 62",38.5%
same,Leptin % decrease,"[4]; Subject 2, day 0 to day 62",36%
